Patent US9718835B2 (China Medical University Hospital, priority 2013, dated 2017)

Columns and labels:
[1] = biological target: T1, recombinant human Topoisomerase I (Homo sapiens, UniProt P11387); assay: Topoisomerase I activity assay in a cell-free system; assay type: biochemical; conditions: purified recombinant human Topo I
T1 construct: purchased TopoGEN
T1 sequence (P11387 1-765): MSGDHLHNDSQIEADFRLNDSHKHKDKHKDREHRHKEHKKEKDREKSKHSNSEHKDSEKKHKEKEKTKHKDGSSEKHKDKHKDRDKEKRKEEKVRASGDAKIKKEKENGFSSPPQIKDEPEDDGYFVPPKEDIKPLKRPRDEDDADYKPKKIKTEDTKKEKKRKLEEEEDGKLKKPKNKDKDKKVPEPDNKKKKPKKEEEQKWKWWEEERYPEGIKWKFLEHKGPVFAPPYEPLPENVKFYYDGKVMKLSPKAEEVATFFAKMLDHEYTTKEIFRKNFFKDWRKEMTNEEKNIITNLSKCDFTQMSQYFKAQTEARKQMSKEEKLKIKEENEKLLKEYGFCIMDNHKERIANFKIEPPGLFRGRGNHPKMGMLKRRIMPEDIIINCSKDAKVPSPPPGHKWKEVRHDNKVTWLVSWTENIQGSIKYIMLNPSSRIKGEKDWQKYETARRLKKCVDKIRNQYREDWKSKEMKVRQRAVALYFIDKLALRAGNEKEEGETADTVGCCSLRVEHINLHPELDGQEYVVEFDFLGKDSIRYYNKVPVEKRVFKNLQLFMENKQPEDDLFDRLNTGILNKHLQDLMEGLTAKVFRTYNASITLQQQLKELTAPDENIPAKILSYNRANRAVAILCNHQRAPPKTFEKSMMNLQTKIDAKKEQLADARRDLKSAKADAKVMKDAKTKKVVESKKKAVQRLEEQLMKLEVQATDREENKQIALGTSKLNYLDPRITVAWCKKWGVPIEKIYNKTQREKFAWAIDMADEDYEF
Description: Inhibition of Topo I activity by 9a in a cell-free system. A 1-delivative with an esterified 20-hydroxy group is expected to be activated by digestion with carboxylesterases. […] We authenticated the inhibitory effect of 9a against Topo I in a dose-dependent manner Thus, we confirmed that 9a is a new class of Topo I inhibitor.
One unit of recombinant human Topoisomerase I enzyme (TopoGEN) was pre-incubated for 20 min at 37° C. with vehicle, 9a, 1, 3, or SN-38 in a final volume of 20 μL reaction buffer (10 mM Tris-HCl, pH 7.9, 1 mM EDTA, 150 mM NaCl, 0.1% BSA, 0.1 mM spermidine, 5% glycerol) was then incubated with 250 ng of supercoiled plasmid DNA for 20 min. The supercoiled, relaxed, or nicked DNA was separated by 1% agarose gel in 1×TAE (Tris-Acetate-EDTA) buffer. Ethidium bromide stained agarose gel was photographed using Gel Doc XR (Bio-Rad).

A-549 cells = assay: Cell cycle analysis by flow cytometry; assay type: cell-based, human; conditions: A-549, 24 h treatment
Text: (§1) First, we determined the effect of 9a on cell cycle distribution using flow cytometry analysis. […] Because it has been shown that 1-Topo I-DNA covalent complexes enhance the transcription-dependent degradation of Topo I via a 26S proteasome pathway,^32 the effects of 9a on the expression levels of Topo I and Topo II were investigated. […] Compound 9a acts directly on Topo I and results in the accumulation of covalent Topo I-DNA complexes followed by proteasomal Topo I degradation, which is the same effect as 1 and contributes to 9a's cytotoxicity.
A-549 cells were fixed with ice-cold 70% EtOH followed by propidium iodide staining Samples were analyzed by a flow cytometer for cell cycle determination. Population of each cell cycle phase was calculated based on the ploidy (<2N as sub-G1; 2N as G1; between 2N and 4N as S; 4N as G2/M), and evaluated statistically by Student's t-test (P<0.01).

Topo I = biological target: T2, Topo I (Homo sapiens, UniProt P11387); assay: Western blot analysis of Topo I expression; assay type: cell-based; set-up: endogenous in cells; host or cells: A-549; conditions: after 8 h treatment
T2 sequence (P11387 1-765): T1 sequence (P11387 1-765)
Text: as §1
Cells were harvested in PBS containing proteinase inhibitors and phosphatase inhibitors, and sonicated. Whole cell lysates were separated by SDS-PAGE and transferred to Immobilon P membrane (EMD Millipore). The membrane was incubated with primary antibody followed by labeling with horseradish peroxidase (HRP)-conjugated secondary antibody (EMD Millipore). Chemilluminence substrate kit (EMD Millipore) was used for detection of membrane-bound HRP, and visualized by the Luminsence image analyzer, LAS4000 (Fuji Photo Film Co., Japan).
Antibodies to caspase-3, caspase-8, caspase-9, PARP, phospho-ATM (Ser1981), ATM, phospho-ATR (Ser428), phospho-Chk1 (Ser345), phospho-Chk2 (Thr68), Chk2, phospho-H2AX (Ser139), and phospho-p53 (Ser15) were purchased from Cell Signaling Technology. […]

Topo II = Topo II activity assay, nuclear extracts of treated A-549 cells, catenated kDNA; assay type: cell-based, human
Text: as §1
Topo I activity test was performed using an assay kit (TopoGEN) according to the manufacturer's instructions. Nuclear extracts from 9a-treated A-549 cells were incubated with supercoiled DNA (for Topo I) or catenated kDNA (for Topo II) for 30 min at 37° C. Reaction mixture was separated by is 1% agarose gel in 1×TAE buffer. The gel was stained with ethidium bromide and photographed using Gel Doc XR (Bio-Rad).

SKOV3 (Ovary cancer) = assay: cells; assay type: cell-based, human; conditions: Table 6; read-out: In vitro cytotoxicity SKOV3 (Ovary cancer)
A-549 (lung carcinoma) = assay: Sulforhodamine B cytotoxicity assay, A-549; assay type: cell-based, human; conditions: Table 1; 72 h; average ± SD
Text: The human tumor cell lines used in this manuscript were A-549 (lung carcinoma), MDA-MB-231 (triple-negative breast cancer), DU-145 (hormone-insensitive prostate cancer), KB (originally isolated from epidermoid carcinoma of the nasopharynx), KBvin (vincristine-resistant KB subline), and HCT116 (colorectal adenocarcinoma). These cell lines were obtained from the Lineberger Comprehensive Cancer Center (UNC-CH) or from ATCC (Manassas, Va.), except KBvin, which was a generous gift of Professor Y.-C. Cheng (Yale University). All cell lines were maintained and assayed in RPMI-1640 medium containing 2 mM L-glutamine and 25 mM HEPES (HyClone), supplemented with 10% heat-inactivated fetal bovine serum (HyClone), 100 μg/mL streptomycin, 100 IU/mL penicillin, and 0.25 μg/mL amphotericin B (Cellgro) in a humidified atmosphere containing 5% CO2 in air. […] The 4-6×10^3 cells/well were cultured for 72 h with various concentrations of test compounds in 96-well plate at 37° C. […] Each assay was performed in triplicate with duplicated samples.

SMILES: CC[C@@]1(OC(=O)CNC(Cc2ccc(OC)cc2)=NS(=O)(=O)c2ccc(C)cc2)C(=O)OCc2c1cc1n(c2=O)Cc2cc3ccccc3nc2-1 [Compound 9a]
- Inhibition of Topo I activity (relaxation/nicking of supercoiled plasmid DNA) [1]: inhibited Topo I activity
- cell cycle distribution (A-549 cells): increased cell populations in S and sub-G1 phases
- protein levels of Topo I (Topo I): significantly inhibited protein levels of Topo I
- Topo II decatenation of kDNA (Topo II): failed to decatenate kineoplast DNA
- IC50 (SKOV3 (Ovary cancer)): 0.0171 ± 0.00227 µM
- IC50 (A-549 (lung carcinoma)): 0.031 ± 0.0035 µM
